Laboratory results reported in US8124629B2, “Naphthylacetic acids” (Hoffmann-La Roche Inc., priority 2008, dated 2012).

What follows are compounds tested against T1, human CRTH2 (Homo sapiens, UniProt Q9Y5Y4) (assay: Human CRTH2 Receptor Binding Assay (whole cell, [3H]ramatroban)). Conditions: CHO-K1 cells expressing human CRTH2 and G-alpha16; 20 nM [3H]ramatroban; 1 hour, room temperature.
T1 sequence (Q9Y5Y4 1-395): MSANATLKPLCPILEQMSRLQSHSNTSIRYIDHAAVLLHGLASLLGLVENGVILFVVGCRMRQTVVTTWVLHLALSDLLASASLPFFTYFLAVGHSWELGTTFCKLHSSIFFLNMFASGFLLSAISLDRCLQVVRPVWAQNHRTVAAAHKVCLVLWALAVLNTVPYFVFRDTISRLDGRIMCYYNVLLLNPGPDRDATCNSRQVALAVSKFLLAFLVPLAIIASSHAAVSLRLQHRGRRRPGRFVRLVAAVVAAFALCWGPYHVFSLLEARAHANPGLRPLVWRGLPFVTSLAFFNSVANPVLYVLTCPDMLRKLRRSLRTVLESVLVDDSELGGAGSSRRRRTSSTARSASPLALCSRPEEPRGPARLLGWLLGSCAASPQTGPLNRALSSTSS
Parameters: expressed in transfected cells; host or cells: CHO-K1
Excerpt: A whole cell receptor binding assay using [^3H]ramatroban as the competing radioactive ligand was employed to evaluate the compound binding activity to human CRTH2. The radioactive ligand [^3H]ramatroban was synthesized according to Sugimoto et. al. (Eur. J. Pharmacol. 524, 30-37, 2005) to a specific activity of 42 Ci/mmol.
A cell line stably expressing human CRTH2 was established by transfecting CHO-K1 cells with two mammalian expression vectors that harbored human CRTH2 and G-alpha16 cDNAs, respectively, using FuGene® 6 transfection reagent (from Roche). Stable clones expressing CRTH2 were selected by staining each clone with BM16 (BD Pharmingen™ from BD Biosciences, a division of Becton, Dickinson and Company), which is a rat monoclonal antibody to human CRTH2. The cells were maintained as monolayer cultures in Ham's F-12 medium containing 10% fetal bovine serum, 100 units/mL penicillin, 100 μg/mL streptomycin, 2 mM glutamine, 0.5 mg/mL G418 (geneticin) for CRTH2, and 0.2 mg/mL hygromycin-B (for G-alpha 16). For whole cell receptor binding assay, the monolayer cells were rinsed once with PBS (phosphate buffered saline), dissociated using ethylenediaminetetraacetate (Versene™ EDTA from Lonza Inc.), and suspended in PBS containing 10 mM MgCl2 and 0.06% BSA (bovine serum albumin) at 1.5×10^6 cells/mL.
The binding reactions (0.2 mL) were performed in 96-well plates at room temperature in PBS containing 1.5×10^5 cells, 10 mM MgCl2, 0.06% BSA, 20 nM [^3H]ramatroban, and test compound at various concentrations. After 1 hour of binding reactions, the cells were harvested on GF™/B filter microplates (microtiter plates with embedded glass fiber from Perkin Elmer, Inc.) and washed 5 times with PBS using a Filtermate™ Harvester (a cell harvester that harvests and washes cells from microplates from PerkinElmer, Inc.). The radioactivities bound to the cells were determined using a microplate scintillation counter (TopCount® NXT, from PerkinElmer, Inc.) after adding 50 μL of Microscint™ 20 scintillation fluid (from PerkinElmer, Inc.) to each well of the filter plates. The radioactivity from non-specific binding was determined by replacing compound with 10 μM of 15(R)-15-methyl PGD2 (from Cayman Chemical Company) in the reaction mixtures. The radioactivity bound to the cells in the absence of compound (total binding) was determined by replacing compound with 0.25% of DMSO (dimethyl sulfoxide) in the reaction mixture. Specific binding data were obtained by subtracting the radioactivity of non-specific binding from each binding data.
The IC50 value is defined as the concentration of the tested compound that is required for 50% inhibition of total specific binding. In order to calculate the IC50 value, the percent inhibition data were determined for 7 concentrations for each compound. The percent inhibition for a compound at each concentration was calculated according to the following formula, [1-(specific binding in the presence of compound)/(total specific binding)]×100. The IC50 value was then obtained by fitting the percent inhibition data to a sigmoidal dose-response (4 parameter logistic) model in the XLfit® software Excel add-in program [from ID Business Solutions Ltd., model 205, where F(x)=(A+(B−A)/(1+((C/×)^D)))].

| SMILES | IC50 |
| --- | --- |
| CC(C)(C)OC(=O)N1CCN(S(=O)(=O)c2ccc(C(=O)c3cc(CC(=O)O)cc4ccc(F)cc34)cc2)CC1 [Example 4-2] | 26.7 nM |
| Cc1c(CC(=O)O)cc2ccc(F)cc2c1C(=O)c1ccc(S(C)(=O)=O)cc1 [Example 6-1, [6-fluoro-4-(4-methanesulfonyl-benzoyl)-3-methyl-naphthalen-2-yl]-acetic acid] | 2.1 nM |
| Cc1c(CC(=O)O)cc2ccc(Cl)cc2c1C(=O)c1ccc(S(C)(=O)=O)cc1 [Example 6-2, [6-Chloro-4-(4-methanesulfonyl-benzoyl)-3-methyl-naphthalen-2-yl]-acetic acid] | 3.7 nM |
| CCS(=O)(=O)c1ccc(C(=O)c2c(C)c(CC(=O)O)cc3ccc(F)cc23)cc1 [Example 6-3, [4-(4-Ethanesulfonyl-benzoyl)-6-fluoro-3-methyl-naphthalen-2-yl]-acetic acid] | 2.4 nM |
| Cc1ccc2cc(CC(=O)O)cc(Cc3ccc(S(C)(=O)=O)cc3)c2c1 [Example 8-1, [4-(4-Methanesulfonyl-benzyl)-6-methyl-naphthalen-2-yl]-acetic acid] | 87.8 nM |
| CS(=O)(=O)c1ccc(Cc2cc(CC(=O)O)cc3ccc(C(F)(F)F)cc23)cc1 [Example 8-2, [4-(4-Methanesulfonyl-benzyl)-6-trifluoromethyl-naphthalen-2-yl]-acetic acid] | 15.3 nM |
| CS(=O)(=O)c1ccc(Cc2cc(CC(=O)O)cc3ccc(F)cc23)cc1 [Example 8-4, [6-Fluoro-4-(4-methanesulfonyl-benzyl)-naphthalen-2-yl]-acetic acid] | 6.1 nM |
| Cc1cc(S(C)(=O)=O)ccc1Cc1cc(CC(=O)O)cc2ccc(F)cc12 [Example 8-5, [6-Fluoro-4-(4-methanesulfonyl-2-methyl-benzyl)-naphthalen-2-yl]-acetic acid] | 5.3 nM |
| CS(=O)(=O)c1ccc(Cc2cc(CC(=O)O)cc3ccc(F)cc23)cc1C(F)(F)F [Example 8-6, [6-Fluoro-4-(4-methanesulfonyl-3-trifluoromethyl-benzyl)-naphthalen-2-yl]-acetic acid] | 5.4 nM |
| CCS(=O)(=O)c1ccc(Cc2cc(CC(=O)O)cc3ccc(F)cc23)c(C)c1 [Example 8-7, [4-(4-Ethanesulfonyl-2-methyl-benzyl)-6-fluoro-naphthalen-2-yl]-acetic acid] | 5.4 nM |
| CN(C)S(=O)(=O)c1ccc(Cc2cc(CC(=O)O)cc3ccc(F)cc23)cc1 [Example 8-8, [4-(4-Dimethylsulfamoyl-benzyl)-6-fluoro-naphthalen-2-yl]-acetic acid] | 6 nM |
| CCS(=O)(=O)c1ccc(Cc2cc(CC(=O)O)cc3ccc(F)cc23)cc1 [Example 8-9, [4-(4-Ethanesulfonyl-benzyl)-6-fluoro-naphthalen-2-yl]-acetic acid] | 4.3 nM |
| CNS(=O)(=O)c1ccc(Cc2cc(CC(=O)O)cc3ccc(F)cc23)cc1 [Example 9-1, [6-Fluoro-4-(4-methylsulfamoyl-benzyl)-naphthalen-2-yl]-acetic acid] | 3.2 nM |

The remaining lines, values ahead:

| IC50 | SMILES |
| --- | --- |
| 3.9 nM | Cc1c(CC(=O)O)cc2ccc(F)cc2c1Cc1ccc(S(C)(=O)=O)cc1 [Example 10-1, [6-Fluoro-4-(4-methanesulfonyl-benzyl)-3-methyl-naphthalen-2-yl]-acetic acid] |
| 54 nM | Cc1c(CC(=O)O)cc2ccc(F)cc2c1Cc1cccc(S(C)(=O)=O)c1 [Example 10-2, [6-Fluoro-4-(3-methanesulfonyl-benzyl)-3-methyl-naphthalen-2-yl]-acetic acid] |
| 3.2 nM | Cc1c(CC(=O)O)cc2ccc(F)cc2c1Cc1ccc(S(=O)(=O)c2ccccc2)cc1 [Example 10-3, [4-(4-Benzenesulfonyl-benzyl)-6-fluoro-3-methyl-naphthalen-2-yl]-acetic acid] |
| 24 nM | Cc1c(CC(=O)O)cc2ccc(F)cc2c1Cc1ccc(Br)cc1 [Example 10-4, [4-(4-Bromo-benzyl)-6-fluoro-3-methyl-naphthalen-2-yl]-acetic acid] |
| 12.4 nM | Cc1c(CC(=O)O)cc2ccc(F)cc2c1Cc1ccc(C#N)cc1 [Example 10-5, [4-(4-Cyano-benzyl)-6-fluoro-3-methyl-naphthalen-2-yl]-acetic acid] |
| 26.7 nM | Cc1c(CC(=O)O)cc2ccc(F)cc2c1Cc1ccc(-n2cccn2)cc1 [Example 10-6, [6-Fluoro-3-methyl-4-(4-pyrazol-1-yl-benzyl)-naphthalen-2-yl]-acetic acid] |
| 6.7 nM | Cc1c(CC(=O)O)cc2ccc(F)cc2c1Cc1cccc(-c2nnnn2C)c1 [Example 10-7, (6-Fluoro-3-methyl-4-[3-(1-methyl-1H-tetrazol-5-yl)-benzyl]-naphthalen-2-yl]-acetic acid] |
| 5 nM | Cc1c(CC(=O)O)cc2ccc(F)cc2c1Cc1ccc(OCc2ccccc2)cc1 [Example 10-8, [4-(4-Benzyloxy-benzyl)-6-fluoro-3-methyl-naphthalen-2-yl]-acetic acid] |
| 59.9 nM | Cc1c(CC(=O)O)cc2ccc(F)cc2c1Cc1cccc(C#N)c1 [Example 10-9, [4-(3-Cyano-benzyl)-6-fluoro-3-methyl-naphthalen-2-yl]-acetic acid] |
| 32.5 nM | Cc1c(CC(=O)O)cc2ccc(F)cc2c1Cc1ccc(-c2nnnn2C)cc1 [Example 10-10, {6-Fluoro-3-methyl-4-[4-(1-methyl-1H-tetrazol-5-yl)-benzyl]-naphthalen-2-yl}-acetic acid] |
| 3.5 nM | Cc1c(CC(=O)O)cc2ccc(F)cc2c1Cc1ccc(SCc2ccccc2)cc1 [Example 10-11, [4-(4-Benzylsulfanyl-benzyl)-6-fluoro-3-methyl-naphthalen-2-yl]-acetic acid] |
| 10 nM | Cc1c(CC(=O)O)cc2ccc(Cl)cc2c1Cc1ccc(S(C)(=O)=O)cc1 [Example 10-12, [6-Chloro-4-(4-methanesulfonyl-benzyl)-3-methyl-naphthalen-2-yl]-acetic acid] |
| 68 nM | Cc1c(CC(=O)O)cc2ccc(F)cc2c1Cc1cccc(S(=O)(=O)C(F)(F)F)c1 [Example 11-2, [6-Fluoro-3-methyl-4-(3-trifluoromethanesulfonyl-benzyl)-naphthalen-2-yl]-acetic acid] |
| 2.7 nM | Cc1c(CC(=O)O)cc2ccc(F)cc2c1Cc1ccc(S(=O)(=O)Cc2ccccc2)cc1 [Example 11-3, [6-Fluoro-3-methyl-4-(4-phenylmethanesulfonyl-benzyl)-naphthalen-2-yl]-acetic acid] |
| 5.6 nM | Cc1c(CC(=O)O)cc2ccc(F)cc2c1Cc1ccc(-c2ccc(S(C)(=O)=O)cc2)cc1 [Example 12-1, [6-Fluoro-4-(4′-methanesulfonyl-biphenyl-4-ylmethyl)-3-methyl-naphthalen-2-yl]-acetic acid] |
| 10.2 nM | Cc1c(CC(=O)O)cc2ccc(F)cc2c1Cc1ccc(-c2cncnc2)cc1 [Example 12-2, [6-Fluoro-3-methyl-4-(4-pyrimidin-5-yl-benzyl)-naphthalen-2-yl]-acetic acid] |
| 3.1 nM | CCS(=O)(=O)c1ccc(Cc2c(C)c(CC(=O)O)cc3ccc(F)cc23)cc1 [Example 13-1, [4-(4-Ethanesulfonyl-benzyl)-6-fluoro-3-methyl-naphthalen-2-yl]-acetic acid] |
| 5.4 nM | Cc1c(CC(=O)O)cc2ccc(F)cc2c1Cc1ccccc1S(=O)(=O)c1ccccc1 [Example 14-1] |
| 60.1 nM | Cc1ccc(Cc2c(C)c(CC(=O)O)cc3ccc(F)cc23)cc1 [Example 15-1, [6-Fluoro-3-methyl-4-(4-methyl-benzyl)-naphthalen-2-yl]-acetic acid] |
